Experimental data from patent US20150157588A1, “Pharmaceutical Composition Comprising Amino-Phenyl-Acetic Acid Octadec-(Z)-9-enyl Ester and Use Thereof for Treating Tumors” (Yeda Research and Development Co., Ltd., priority 2012, published 2015).

Test system: anti-CD3-activated T cells
Assay: Microarray gene expression, T cells activated by anti-CD3 antibody
Type: cell-based, human
Details: for Fold change CCL7: 208075_s_at; for Fold change INDO: 210029_at; for Fold change RSAD2: 213797_at; for Fold change LYZ /// RFK: 213975_s_at; for Fold change CCL8: 214038_at; for Fold change CXCL5: 215101_s_at; for Fold change ANKRD12: 216563_at; for Fold change CCL2: 216598_s_at; for Fold change HIG2: 218507_at; for Fold change C1orf165: 219670_at; for Fold change IL1F9: 220322_at; for Fold change IL22: 221165_s_at; for Fold change PDE3B: 222330_at
Method: CD3 positive T cells were extracted from a healthy donor according to a standard protocol, and seeded in T cell medium including RPMI, 10% fetal calf serum, sodium pyruvate, L-Glutamine, and Penicillin/Streptomycin. Following an overnight incubation with medium, the cells were treated by incubating for 2 hours at 37° C. with amino-phenyl-acetic acid octadec-(Z)-9-enyl ester at a concentration of 10 micrograms/ml in a final volume of 10 ml in T-cell medium with or without 0.05% ethanol. After incubation, half the cells from each treatment were centrifuged and 2 ml of Tri-reagent (Sigma) were added to the pellet. The other half of the cells from each treatment were transferred to anti-CD3 antibody coated 24 well plates for an overnight incubation at 37° C. Coating plates with an anti-CD3 antibody was carried out by incubating with 2 micrograms/ml of OKT3 anti-CD3 antibody overnight at 4° C., washing three times with PBS and blocking with filtered 1% Bovine Serum Albumin for 1 hour. After activation with anti-CD3 antibody, cells were centrifuged and 2 ml of Tri-reagent were added to the pellet.
RNA was extracted from unstimulated cells and from cells activated with anti-CD3 according to standard protocols and used for hybridization with a Human Genome U133A 2.0 (Affymetrix, Catalogue number 900468), according to the manufacturer's instructions. The results of the hybridization were read by a GeneChip scanner 3000 (Affymetrix) and analyzed by QuantArray (GSI lumonics).
The effects of amino-phenyl-acetic acid octadec-(Z)-9-enyl ester in ethanol solution or in an aqueous vehicle (hereinafter termed “in PBS”) on gene expression in unstimulated T cells and T cells activated by anti-CD3 antibody were compared by microarray analysis.

[1] = anti-CD3-activated T cells, in ethanol solution vs in PBS
[2] = anti-CD3-activated T cells, in ethanol solution vs untreated
[3] = anti-CD3-activated T cells, in PBS vs untreated

Structure (SMILES): CCCCCCCC/C=C\CCCCCCCCOC(=O)C(N)c1ccccc1 (centres unmarked) [amino-phenyl-acetic acid octadec-(Z)-9-enyl ester]
- Fold change CCL7 [1]: 2.01
- Fold change CCL7 [2]: 1.991
- Fold change NTRK1 (208605_s_at, anti-CD3-activated T cells, in ethanol solution vs untreated): 2.03
- Fold change TFPI2 (209277_at, anti-CD3-activated T cells, in ethanol solution vs in PBS): 2.53
- Fold change TFPI2 (209277_at, anti-CD3-activated T cells, in ethanol solution vs untreated): 3.32
- Fold change TFPI2 (209278_s_at, anti-CD3-activated T cells, in ethanol solution vs in PBS): 2.99
- Fold change TFPI2 (209278_s_at, anti-CD3-activated T cells, in ethanol solution vs untreated): 3.87
- Fold change CHI3L1 (209395_at, anti-CD3-activated T cells, in ethanol solution vs in PBS): 2.69
- Fold change CHI3L1 (209395_at, anti-CD3-activated T cells, in ethanol solution vs untreated): 3.40
- Fold change CHI3L1 (209396_s_at, anti-CD3-activated T cells, in ethanol solution vs in PBS): 2.15
- Fold change CHI3L1 (209396_s_at, anti-CD3-activated T cells, in ethanol solution vs untreated): 2.58
- Fold change INDO [1]: 2.08
- Fold change INDO [2]: 2.47
- Fold Change SPAG1 (210117_at, anti-CD3-activated T cells, in ethanol solution vs in PBS): −1.90
- Fold change IL1A (210118_s_at, anti-CD3-activated T cells, in ethanol solution vs untreated): 2.02
- Fold change PLA2G4A (210145_at, anti-CD3-activated T cells, in ethanol solution vs untreated): 2.00
- Fold Change LY9 (210370_s_at, anti-CD3-activated T cells, in ethanol solution vs in PBS): 2.25
- Fold change INHBA (210511_s_at, anti-CD3-activated T cells, in ethanol solution vs untreated): 1.96
- Fold change FPRL1 (210772_at, anti-CD3-activated T cells, in ethanol solution vs untreated): 2.00
- Fold change PLAUR (210845_s_at, anti-CD3-activated T cells, in ethanol solution vs in PBS): 2.01
- Fold change PLAUR (210845_s_at, anti-CD3-activated T cells, in ethanol solution vs untreated): 2.02
- Fold change LYST (210943_s_at, anti-CD3-activated T cells, in ethanol solution vs untreated): 2.45
- Fold change SERPINA1 (211429_s_at, anti-CD3-activated T cells, in ethanol solution vs untreated): 2.06
- Fold change IL8 (211506_s_at, anti-CD3-activated T cells, in ethanol solution vs untreated): 2.69
- Fold change PLAUR (211924_s_at, anti-CD3-activated T cells, in ethanol solution vs untreated): 1.91
- Fold Change MCM4 (212141_at, anti-CD3-activated T cells, in ethanol solution vs in PBS): −1.98
- Fold Change MCM4 (212142_at, anti-CD3-activated T cells, in ethanol solution vs in PBS): −2.80
- Fold change IL1RN (212657_s_at, anti-CD3-activated T cells, in ethanol solution vs untreated): 1.98
- Fold change IL1RN (212659_s_at, anti-CD3-activated T cells, in ethanol solution vs untreated): 1.90
- Fold change RSAD2 [1]: 3.11
- Fold change RSAD2 [2]: 2.28
- Fold change LYZ /// RFK [1]: 2.02
- Fold change LYZ /// RFK [2]: 2.00
- Fold change CCL8 [1]: 2.33
- Fold change CCL8 [2]: 2.23
- Fold change CXCL5 [3]: 1.995
- Fold change CXCL5 [2]: 2.31
- Fold change SOD2 (215223_s_at, anti-CD3-activated T cells, in ethanol solution vs untreated): 1.95
- Fold change SNX9 (215284_at, anti-CD3-activated T cells, in ethanol solution vs untreated): 2.44
- Fold change LYST (215415_s_at, anti-CD3-activated T cells, in ethanol solution vs untreated): 2.09
- Fold Change LY9 (215967_s_at, anti-CD3-activated T cells, in ethanol solution vs in PBS): 2.05
- Fold Change LY9 (215967_s_at, anti-CD3-activated T cells, in ethanol solution vs untreated): 2.2
- Fold change IL1RN (216243_s_at, anti-CD3-activated T cells, in ethanol solution vs untreated): 1.99
- Fold change ANKRD12 [3]: 1.94
- Fold change ANKRD12 [2]: 2.48
- Fold change probeset 216575_at [1]: 2.69
- Fold change probeset 216575_at [2]: 2.31
- Fold change CCL2 [1]: 5.27
- Fold change CCL2 [2]: 5.00
- Fold change SLC7A11 (217678_at, anti-CD3-activated T cells, in ethanol solution vs untreated): 1.92
- Fold Change TNS3 (217853_at, anti-CD3-activated T cells, in ethanol solution vs in PBS): 2.00
- Fold change FLJ20273 (218035_s_at, anti-CD3-activated T cells, in ethanol solution vs untreated): 2.17
- Fold change HIG2 [1]: −2.31
- Fold change HIG2 [2]: −2.17
- Fold Change DTL (218585_s_at, anti-CD3-activated T cells, in ethanol solution vs in PBS): −1.93
- Fold change ANKRD11 (219437_s_at, anti-CD3-activated T cells, in ethanol solution vs untreated): 2.84
- Fold change C1orf165 [1]: −2.22
- Fold change C1orf165 [2]: −2.29
- Fold change IL1F9 [1]: 2.74
- Fold change IL1F9 [2]: 3.10
- Fold change MCM10 (220651_s_at, anti-CD3-activated T cells, in ethanol solution vs untreated): −2.05
- Fold change IL22 [1]: −3.03
- Fold change IL22 [2]: −2.63
- Fold Change BNIP3L (221478_at, anti-CD3-activated T cells, in ethanol solution vs in PBS): −2.45
- Fold Change BNIP3L (221478_at, anti-CD3-activated T cells, in ethanol solution vs untreated): −2.28
- Fold Change BNIP3L (221479_s_at, anti-CD3-activated T cells, in ethanol solution vs in PBS): −2.00
- Fold Change GINS2 (221521_s_at, anti-CD3-activated T cells, in ethanol solution vs in PBS): −1.99
- Fold change GRSF1 (221917_s_at, anti-CD3-activated T cells, in PBS vs untreated): 1.92
- Fold change PDE3B [1]: 1.99
- Fold change PDE3B [2]: 1.97
- down-regulated genes (activated T cells, in PBS vs untreated): no down-regulated genes
